# Test results from patent US20100130598A1, “METHODS FOR INDUCING PROGRAMMED CELL DEATH” (Novogen Research Pty Ltd., priority 2008, published 2010).
# Key:
# caspases-3/7, -8, and -9 = experiment: Caspase-3/7, -8, and -9 activity assay (Caspase-Glo) on cell lysates; assay type: cell-based, human; conditions: EOC cells, 24 h; increasing concentrations of Compound 1 or 2 μM Paclitaxel
# Text: Protein preparation and cellular fractionation. After drug treatment, protein was extracted and measured as previously described (Alvero et al, 2006). For separation of the cytoplasmic and mitochondrial fractions, cell pellets were processed using the ApoAlert™ Cell Fractionation Kit (BD Biosciences, San Jose, Calif.) according to the manufacturer's instructions. For separation of the cytoplasmic and nuclear fractions, pellets were processed using NE-PER Nuclear and Cytoplasmic Extraction (Pierce Biotechnology, Inc., Rockford, Ill.). Caspase-3/7, -8, and -9 activity assay. Ten μg of protein in a 50 μl total volume was mixed with 50 μl of equilibrated Caspase-Glo^10 3/7, 8, or 9 reagents (Promega). After incubating at room temperature for 1 h, luminescence was measured using TD 20/20 Luminometer (Turner Designs, Sunnyvale, Calif.). Blank values were subtracted and fold-increase in activity was determined in relation to the control non-treatment.
# EOC tumors = experiment: Mouse EOC xenograft study; assay type: in vivo
# Method: Mouse xenograft studies. The in vivo study as approved by the Yale University Institutional Animal Care & Use Committee. Cells (1×10^6 cells) were resuspended in 200 μ1 total volume of 50% RPMI and 50% BD Matrigel Matrix (BD Biosciences, Bedford, Mass.) and injected subcutaneously into the right flank of NCR nude mice. Intra-peritoneal therapy commenced eight days post-inoculation as follows: Paclitaxel 10 mg/kg q×3d, Carboplatin 40 mg/kg q×7d, and Compound 1 in 20% HPBCD, 100 mg/kg every day. Control groups received 20% HPBCD in PBS. Mice were treated and observed for 3 weeks. Tumor size was determined by caliper measurements and anti-tumor activity was analyzed with respect to maximal tumor inhibition (treated/control, T/C) as described previously (Kamsteeg et al, 2003).
# [1] = tested on: Caspase 2, 3 and 9 in MIAPaCa-2 cells; experiment: In situ caspase activity by flow cytometry, MIAPaCa-2; assay type: cell-based, human; conditions: MIAPaCa-2, 10 μM, after 48 hrs
# Method: (§1) Cells. Human pancreatic cell lines HPAC, MIAPaCa-2 and PANC-1 were obtained from the ATCC. (Manassas, Va.). The cells were maintained in DMEM media with Gln and high glucose (Mediatech, Manassas, Va.) with 10% fetal bovine serum (FBS, HyClone, Logan, Utah) and pencillin/streptomycin.
# (§2) Caspase Activity After 48 h treatment with 10 μM Compound 10, HPAC, MIAPaCa-2 and PANC-1 cells were harvested by trypsinization and resuspended in DMEM media with 10% FBS. The cells were incubated with caspase substrates for 1 h at 37° C., 5% CO2, then probed with Annexin-V-Cy5 and sytox blue. Caspase +ve cells were gated as shown in the histograms and these cells are indicated on the Annexin-V-Cy5/sytox blue spectra as blue cells. In situ caspase activity was assayed using fluorescent substrates. For Caspase 2, FITC-VDVAD-fmk (Biovision K182-100), for Caspase 3, FITC-DEVD-fmk (K183-100) and for Caspase 9, FITC-LEHD-fmk (K199-100) was used. These substrates bind irreversibly to their respective activated caspases, and caspase activation was quantitated by flow cytometry. […] Caspase activation, apoptosis and necrosis were measured simultaneously using a violet, blue and red laser in a BD LSRII flow cytometer.
# [2] = tested on: Caspase 2, 3 and 9 in HPAC cells; experiment: In situ caspase activity by flow cytometry, HPAC; assay type: cell-based, human
# Method: as §1
# […] The cells were incubated with caspase substrates for 1 h at 37° C., 5% CO2, then probed with Annexin-V-Cy5 and sytox blue. Caspase +ve cells were gated as shown in the histograms and these cells are indicated on the Annexin-V-Cy5/sytox blue spectra as blue cells. In situ caspase activity was assayed using fluorescent substrates. For Caspase 2, FITC-VDVAD-fmk (Biovision K182-100), for Caspase 3, FITC-DEVD-fmk (K183-100) and for Caspase 9, FITC-LEHD-fmk (K199-100) was used. These substrates bind irreversibly to their respective activated caspases, and caspase activation was quantitated by flow cytometry. After 1 hr incubation at 37° C. in 5% CO2, the cells were washed with DPBS containing 5% FBS and resuspended in Annexin-V binding buffer containing Annexin-V-Cy5 (Biovision K103-3) and sytox blue (Invitrogen), a dye that binds necrotic cells. Caspase activation, apoptosis and necrosis were measured simultaneously using a violet, blue and red laser in a BD LSRII flow cytometer.
# [3] = tested on: Caspase 2, 3 and 9 in PANC-1 cells; experiment: In situ caspase activity by flow cytometry, PANC-1; assay type: cell-based, human; conditions: PANC-1, 10 μM, after 48 hrs
# Method: as §1, §2
# pancreatic cancer cells = experiment: Simultaneous caspase activation, apoptosis and necrosis (Annexin-V-Cy5/sytox blue) by flow cytometry; assay type: cell-based, human; conditions: Compound 10-treated, 10 μM, 48 hrs
# Method: as §1
# Caspase Activity After 48 h treatment with 10 μM Compound 10, HPAC, MIAPaCa-2 and PANC-1 cells were harvested by trypsinization and resuspended in DMEM media with 10% FBS. The cells were incubated with caspase substrates for 1 h at 37° C., 5% CO2, then probed with Annexin-V-Cy5 and sytox blue. Caspase +ve cells were gated as shown in the histograms and these cells are indicated on the Annexin-V-Cy5/sytox blue spectra as blue cells. In situ caspase activity was assayed using fluorescent substrates. For Caspase 2, FITC-VDVAD-fmk (Biovision K182-100), for Caspase 3, FITC-DEVD-fmk (K183-100) and for Caspase 9, FITC-LEHD-fmk (K199-100) was used. These substrates bind irreversibly to their respective activated caspases, and caspase activation was quantitated by flow cytometry. After 1 hr incubation at 37° C. in 5% CO2, the cells were washed with DPBS containing 5% FBS and resuspended in Annexin-V binding buffer containing Annexin-V-Cy5 (Biovision K103-3) and sytox blue (Invitrogen), a dye that binds necrotic cells. Caspase activation, apoptosis and necrosis were measured simultaneously using a violet, blue and red laser in a BD LSRII flow cytometer.
# MIAPaCa-2 cells = experiment: Cell cycle analysis by FACS (PI), MIAPaCa-2; assay type: cell-based, human; conditions: MIAPaCa-2, 10 μM
# Method: as §1
# FACS Analysis. Apoptosis was measured by FACS analysis using Annexin-V-FITC and propidium iodide (PI) (Biovision, Mountain View, Calif.) as probes (Ahn et al., 2003). Mitochondrial membrane potential was measured by FACS analysis using JC-1 (Biovision) as a probe (Ahn et al., 2003). Cell cycle was analyzed on ethanol-fixed, RNaseA-treated cells staining with PI. In each spectrum, 10,000 gated events were recorded and analyzed with a FACSCalibur (BD Biosciences. San Jose, Calif.). All experiments were done in triplicate, error bars represent one standard deviation. Caspase inhibitor I (zVAD-fmk) was obtained from Calbiochem.
structure (smiles),measurement,setting,value
"COc1ccc(C2c3ccc(O)c(C)c3OCC2c2ccc(O)cc2)cc1 (stereo not shown) [Compound 1, 3-(4-hydroxyphenyl)-4-(4-methoxyphenyl)-8-methylchroman-7-ol]","caspase-3/7, -8, and -9 activities","caspases-3/7, -8, and -9",no changes
same,"tumor proliferation kinetics, final tumor size and volume","EOC tumors; dose-dependent, compared to carboplatin and paclitaxel",significant decrease
same,"T/C values (maximal tumor inhibition, treated/control)","EOC tumors; intra-peritoneal, 3 weeks, Compound 1 100 mg/kg every day, Carboplatin 40 mg/kg q×7d, Paclitaxel 10 mg/kg q×3d",30%
same,toxic side effects,"EOC tumors; mouse, in vivo",No toxic side effects
"COc1ccc(C2c3ccc(O)cc3OCC2c2ccc(O)cc2)cc1 (stereo not shown) [Compound 10, 3-(4-hydroxyphenyl)-4-(4-methoxyphenyl)chroman-7-ol]","caspase 2, 3 and 9 activation",[1],activated
same,caspase 2 and caspase 9 induction,"[2]; 10 μM, after 48 hrs",neither caspase 2 or caspase 9 were induced
same,caspase-3 induction,"[2]; 10 μM, after 48 hrs",modestly induced
same,caspase 9 activation,"[2]; 30 μM, data not shown",activated
same,"caspase 2, 3 and 9 activation",[3],activated
same,caspase positive cells that bound both Annexin-V-Cy5 and sytox blue (later stages of apoptosis),pancreatic cancer cells,Approximately 30%
same,caspase positive cells that were Annexin-V positive and sytox blue negative (early stages of apoptosis),pancreatic cancer cells,Approximately 60%
same,caspase positive cells that were sytox blue positive and Annexin-V negative (necrosis),pancreatic cancer cells,Less than 5%
same,time of entering G2/M arrest post treatment,MIAPaCa-2 cells,24 to 48 h
